According to patent US20240425517A1, “NOVEL COMPOUND FOR DEGRADATION OF TARGET PROTEIN OR POLYPEPTIDE BY POLYUBIQUITINATION” (PRAZER THERAPEUTICS INC., priority 2021, published 2024):
Where a name gives a salt, the structure may show the parent alone.

Molecular target: T1, BRD4 proteins (Homo sapiens, UniProt O60885)
T1 construct: endogenous in cells; host or cells: MM.1S
Experiment: Degradation of BRD4 protein in MM.1S cell lines (Western blot densitometry)
Format: cell-based
Conditions: MM.1S cells, 10 μM, 24 hours
Method in brief: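 MM.1S cells in RPMI-1640 with 10% FBS were treated with each degrader at 10 μM for 24 h. RIPA lysates were analysed by SDS-PAGE/Western blot with β-actin as reference, and BRD4 band densitometry was scored as reduction <40% (+), 40-<70% (++) or ≥70% (+++).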

SMILES | BRD4 degrading capacity (%)
Cc1sc2c(c1C)C(c1ccc(Cl)cc1)=N[C@@H](CC(=O)Nc1ccc(C#CCN)c(CO)c1)c1nnc(C)n1-2.Cl [3-3′, (S)—N-(4-(3-aminoprop-1-yn-1-yl)-3-(hydroxymethyl)phenyl)-2-(4-(4-chlorophenyl)-2,3,9-trimethyl-6H-thieno[3,2-f][1,2,4]triazolo[4,3-a][1,4]diazepin-6-yl)acetamide hydrochloride] | +++ (the degrading capacity was reduced by 70% or more)
COC(=O)c1ccc(NC2CCC(NC(=O)C[C@@H]3N=C(c4ccc(Cl)cc4)c4c(sc(C)c4C)-n4c(C)nnc43)CC2)cc1C#CCN (stereo partly drawn) [5-35′, methyl (S)-2-(3-aminoprop-1-yn-1-yl)-4-((4-(2-(4-(4-chlorophenyl)-2,3,9-trimethyl-6H-thieno[3,2-f][1,2,4]triazolo[4,3-a][1,4]diazepin-6-yl)acetamido)cyclohexyl)amino)benzoate trifluoroacetic acid] | +++ (the degrading capacity was reduced by 70% or more)
Cc1sc2c(c1C)C(c1ccc(Cl)cc1)=N[C@@H](CC(=O)NCC#Cc1ccc(C#CCON)s1)c1nnc(C)n1-2.Cl [4-223′, (S)—N-(3-(5-(3-(aminooxy)prop-1-yn-1-yl)thiophen-2-yl)prop-2-yn-1-yl)-2-(4-(4-chlorophenyl)-2,3,9-trimethyl-6H-thieno[3,2-f][1,2,4]triazolo[4,3-a][1,4]diazepin-6-yl)acetamide hydrochloride] | ++ (the degrading capacity was reduced by 40% to 70% (exclusive of 70))
COC(=O)c1ccc(NC(=O)CCNC(=O)C[C@@H]2N=C(c3ccc(Cl)cc3)c3c(sc(C)c3C)-n3c(C)nnc32)cc1C#CCN.Cl [5-4′, methyl (S)-2-(3-aminoprop-1-yn-1-yl)-4-(3-(2-(4-(4-chlorophenyl)-2,3,9-trimethyl-6H-thieno[3,2-f][1,2,4]triazolo[4,3-a][1,4]diazepin-6-yl)acetamido)propanamido)benzoate hydrochloride] | ++ (the degrading capacity was reduced by 40% to 70% (exclusive of 70))
Cc1sc2c(c1C)C(c1ccc(Cl)cc1)=N[C@@H](CC(=O)NCC#CCNC(=O)c1ccc(C#CCN)o1)c1nnc(C)n1-2.Cl [4-148′, (S)-5-(3-aminoprop-1-yn-1-yl)-N-(4-(2-(4-(4-chlorophenyl)-2,3,9-trimethyl-6H-thieno[3,2-f][1,2,4]triazolo[4,3-a][1,4]diazepin-6-yl)acetamido)but-2-yn-1-yl)furan-2-carboxamide hydrochloride] | + (the degrading capacity of each BRD4 degrader was reduced by less than 40%)
Cc1sc2c(c1C)C(c1ccc(Cl)cc1)=N[C@@H](CC(=O)NCCCCC(=O)Nc1ccc(C#CCN)cc1)c1nnc(C)n1-2.Cl [4-163′, (S)—N-(4-(3-aminoprop-1-yn-1-yl)phenyl)-5-(2-(4-(4-chlorophenyl)-2,3,9-trimethyl-6H-thieno[3,2-f][1,2,4]triazolo[4,3-a][1,4]diazepin-6-yl)acetamido)pentanamide hydrochloride] | +++ (the degrading capacity was reduced by 70% or more)
Cc1sc2c(c1C)C(c1ccc(Cl)cc1)=N[C@@H](CC(=O)N1CCC(CNc3ccc(C(=O)O)c(C#CCN)c3)CC1)c1nnc(C)n1-2 [5-139′, (S)-2-(3-aminoprop-1-yn-1-yl)-4-(((1-(2-(4-(4-chlorophenyl)-2,3,9-trimethyl-6H-thieno[3,2-f][1,2,4]triazolo[4,3-a][1,4]diazepin-6-yl)acetyl)piperidin-4-yl)methyl)amino)benzoic acid trifluoroacetic acid] | + (the degrading capacity of each BRD4 degrader was reduced by less than 40%)
Cc1sc2c(c1C)C(c1ccc(Cl)cc1)=N[C@@H](CC(=O)NCCCC(=O)Nc1ccc(C(=O)N(C)C)c(C#CCN)c1)c1nnc(C)n1-2.Cl [5-61′, (S)-2-(3-aminoprop-1-yn-1-yl)-4-(4-(2-(4-(4-chlorophenyl)-2,3,9-trimethyl-6H-thieno[3,2-f][1,2,4]triazolo[4,3-a][1,4]diazepin-6-yl)acetamido)butanamido)-N,N-dimethylbenzamide hydrochloride] | ++ (the degrading capacity was reduced by 40% to 70% (exclusive of 70))
COC(=O)c1ccc(NC(=O)CCCNC(=O)C[C@@H]2N=C(c3ccc(Cl)cc3)c3c(sc(C)c3C)-n3c(C)nnc32)cc1C#CCNC(C)=O [5-148′, methyl (S)-2-(3-acetamidoprop-1-yn-1-yl)-4-(4-(2-(4-(4-chlorophenyl)-2,3,9-trimethyl-6H-thieno[3,2-f][1,2,4]triazolo[4,3-a][1,4]diazepin-6-yl)acetamido)butanamido)benzoate] | + (the degrading capacity of each BRD4 degrader was reduced by less than 40%)
COC(=O)c1ccc(C(=O)NCCCNC(=O)C[C@@H]2N=C(c3ccc(Cl)cc3)c3c(sc(C)c3C)-n3c(C)nnc32)cc1C#CCN.Cl [5-18′, methyl (S)-2-(3-aminoprop-1-yn-1-yl)-4-((3-(2-(4-(4-chlorophenyl)-2,3,9-trimethyl-6H-thieno[3,2-f][1,2,4]triazolo[4,3-a][1,4]diazepin-6-yl)acetamido)propyl)carbamoyl)benzoate hydrochloride] | +++ (the degrading capacity was reduced by 70% or more)
COC(=O)c1ccc(NC(=O)CCCNC(=O)C[C@@H]2N=C(c3ccc(Cl)cc3)c3c(sc(C)c3C)-n3c(C)nnc32)cc1C#CCN.Cl [4-228′] | +++ (the degrading capacity was reduced by 70% or more)
COC(=O)c1ccc(N(C)C(=O)CCCNC(=O)C[C@@H]2N=C(c3ccc(Cl)cc3)c3c(sc(C)c3C)-n3c(C)nnc32)cc1C#CCN.Cl [5-150′, methyl (S)-2-(3-aminoprop-1-yn-1-yl)-4-(4-(2-(4-(4-chlorophenyl)-2,3,9-trimethyl-6H-thieno[3,2-f][1,2,4]triazolo[4,3-a][1,4]diazepin-6-yl)acetamido)-N-methylbutanamido)benzoate hydrochloride] | +++ (the degrading capacity was reduced by 70% or more)
Cc1sc2c(c1C)C(c1ccc(Cl)cc1)=N[C@@H](CC(=O)Nc1ccc(CO)c(C#CCN)c1)c1nnc(C)n1-2.Cl [3-27′, (S)—N-(3-(3-aminoprop-1-yn-1-yl)-4-(hydroxymethyl)phenyl)-2-(4-(4-chlorophenyl)-2,3,9-trimethyl-6H-thieno[3,2-f][1,2,4]triazolo[4,3-a][1,4]diazepin-6-yl)acetamide hydrochloride] | ++ (the degrading capacity was reduced by 40% to 70% (exclusive of 70))
COC(=O)c1ccc(C#CCNC(=O)C[C@@H]2N=C(c3ccc(Cl)cc3)c3c(sc(C)c3C)-n3c(C)nnc32)cc1C#CCN.Cl [5-116′, methyl (S)-2-(3-aminoprop-1-yn-1-yl)-4-(3-(2-(4-(4-chlorophenyl)-2,3,9-trimethyl-6H-thieno[3,2-f][1,2,4]triazolo[4,3-a][1,4]diazepin-6-yl)acetamido)prop-1-yn-1-yl)benzoate hydrochloride] | +++ (the degrading capacity was reduced by 70% or more)
COC(=O)c1nc(NC(=O)CCCNC(=O)C[C@@H]2N=C(c3ccc(Cl)cc3)c3c(sc(C)c3C)-n3c(C)nnc32)ccc1C#CCN.Cl [5-96′, methyl (S)-3-(3-aminoprop-1-yn-1-yl)-6-(4-(2-(4-(4-chlorophenyl)-2,3,9-trimethyl-6H-thieno[3,2-f][1,2,4]triazolo[4,3-a][1,4]diazepin-6-yl)acetamido)butanamido)picolinate hydrochloride] | +++ (the degrading capacity was reduced by 70% or more)
COC(=O)c1ccc(NCC2CCN(C(=O)C[C@@H]3N=C(c4ccc(Cl)cc4)c4c(sc(C)c4C)-n4c(C)nnc43)CC2)cc1C#CCN [5-85′, methyl (S)-2-(3-aminoprop-1-yn-1-yl)-4-(((1-(2-(4-(4-chlorophenyl)-2,3,9-trimethyl-6H-thieno[3,2-f][1,2,4]triazolo[4,3-a][1,4]diazepin-6-yl)acetyl)piperidin-4-yl)methyl)amino)benzoate trifluoroacetic acid] | +++ (the degrading capacity was reduced by 70% or more)
COC(=O)c1ccc(NC(=O)CCCOC(=O)C[C@@H]2N=C(c3ccc(Cl)cc3)c3c(sc(C)c3C)-n3c(C)nnc32)cc1C#CCN [5-115′, methyl (S)-2-(3-aminoprop-1-yn-1-yl)-4-(4-(2-(4-(4-chlorophenyl)-2,3,9-trimethyl-6H-thieno[3,2-f][1,2,4]triazolo[4,3-a][1,4]diazepin-6-yl)acetoxy)butanamido)benzoate hydrochloride] | +++ (the degrading capacity was reduced by 70% or more)
COC(=O)c1c(C)cc(NC(=O)CCCNC(=O)C[C@@H]2N=C(c3ccc(Cl)cc3)c3c(sc(C)c3C)-n3c(C)nnc32)cc1C#CCN.Cl [5-78′, methyl (S)-2-(3-aminoprop-1-yn-1-yl)-4-(4-(2-(4-(4-chlorophenyl)-2,3,9-trimethyl-6H-thieno[3,2-f][1,2,4]triazolo[4,3-a][1,4]diazepin-6-yl)acetamido)butanamido)-6-methylbenzoate hydrochloride] | + (the degrading capacity of each BRD4 degrader was reduced by less than 40%)
Cc1sc2c(c1C)C(c1ccc(Cl)cc1)=N[C@@H](CC(=O)NCC#Cc1ccc(C#CCN)nc1)c1nnc(C)n1-2.Cl [4-179′, (S)—N-(3-(6-(3-aminoprop-1-yn-1-yl)pyridin-3-yl)prop-2-yn-1-yl)-2-(4-(4-chlorophenyl)-2,3,9-trimethyl-6H-thieno[3,2-f][1,2,4]triazolo[4,3-a][1,4]diazepin-6-yl)acetamide hydrochloride] | + (the degrading capacity of each BRD4 degrader was reduced by less than 40%)
